Measured values as given in paper PMC9124651, “High-performance thin-layer chromatography in combination with an acetylcholinesterase-inhibition bioassay with pre-oxidation of organothiophosphates to determine neurotoxic effects in storm, waste, and surface water” (Analytical and Bioanalytical Chemistry, 2022).

Legend:
[1] = target: T1, AChE from electric eel (Electrophorus electricus) (Electrophorus electricus, UniProt O42275); assay: HPTLC-(Ox)-AChE-I assay, immersion method (plates immersed in AChE solution); type: biochemical; conditions: without oxidation; for IC10 (10% AChE inhibition), best fit / IC20 (20% AChE inhibition), best fit / IC50 (50% AChE inhibition), best fit / IC80 (80% AChE inhibition), best fit: OTPs 100 µL, oxons 10 µL applied, peak heights, n = 3
T1 construct: purchased Sigma-Aldrich GmbH (Steinheim, Germany)
Description: (§1) LiChrospher 10 × 20 cm HPTLC Silica gel 60 F254s plates (Merck, Darmstadt, Germany) with a layer thickness of 170–190 µm and spherical silica particles with a size of 7 µm were used. The HPTLC plates were immersed twice in 2-propanol for 20 min, each time followed by a drying step at room temperature for 20 min. The plates then were pre-developed with methanol, dried for 20 min at room temperature, heated at 105 °C for 20 min, and stored in a desiccator for further use. The automatic TLC Sampler 4 (ATS 4, CAMAG AG, Muttenz, Switzerland) was used for sample application. The desired sample volumes were sprayed as 6-mm-wide bands onto the HPTLC plates with an application speed of 300 nL/s. The distances of the exterior bands from the edges of the plates were 15 mm. The distance from the bottom edge was 8 mm for all bands. Methanol was used as rinsing solvent. The following further application parameters were used: filling speed 15 µL/s, pre-dosage volume 200 nL, retraction volume 200 nL, rinsing vacuum time 4 s, filling vacuum time 0 s, rinsing cycles 2, and filling cycles 1. The development of the HPTLC plates was realized by the Automated Multiple Development 2 (AMD 2, CAMAG, Muttenz, Switzerland). The OTPs, their oxons, and environmental samples were separated with an eluent mixture of cyclohexane, dichloromethane, and acetone in different proportions and with increasing migration distances (Fig. S2). After each development step, a drying step of 3 min under vacuum followed. The final migration distance was 80 mm and the whole procedure took approximately 45 min. In addition, a simpler development process was used containing only the last step of the previous described method.
(§2) After chromatographic development, 10 mL of freshly prepared NBS (100 µg/mL) was sprayed onto the HPTLC plates with a glass reagent sprayer, followed by a 5-min incubation at room temperature. The following AChE-I assay was performed in parts according to Mendoza et al., Stütz et al., and Weins and Jork. AChE was buffered in TRIS/HCl at a pH of 7.8 (2.5 U/mL). The AChE solution was either sprayed onto the HPTLC plates with a glass reagent sprayer until the plates were evenly moist (approx. 10 mL) or the plates were immersed in the AChE solution using the Chromatogram Immersion Device 3 (CID 3, CAMAG, Muttenz, Switzerland). The immersion volume, speed, time, and depth were approx. 200 mL, 2.5 cm/s, 2 s, and approx. 85 mm, respectively. Afterward, the plates were placed separately in closed plastic boxes, which contained paper towels moistened with water to gain a saturated atmosphere. An incubation at 37 °C for 5 min followed. The substrate indoxyl acetate was freshly prepared in methanol at a concentration of 20 mg/mL and 5 mL was sprayed onto the HPTLC plates with a glass reagent sprayer. During 45-min incubation time at room temperature, AChE cleaves the substrate into indoxyl and acetate. The indoxyl reacts with oxygen to the blue indigo dye. When AChE was inhibited, no indigo was produced and the spot stayed white. The TLC Scanner 3 (CAMAG, Muttenz, Switzerland) was used to scan each track on the plates at 670 nm using the fluorescence mode without optical filter. The CAMAG-embedded software Wincats (Vers. 1.4.9) was used to provide chromatograms of each track and to evaluate inhibition zones.
Several amounts of an OTP mix and an oxon mix were applied on HPTLC plates (Tab. S2) and tested as described in the “Combination of HPTLC and AChE-inhibition assay” section. Three plates were used for each dilution series. The application volume was 10 µL for investigating OTPs with following oxidation and 100 µL for testing OTPs without following oxidation. The application volume for the oxons was 10 µL. They were tested without oxidation step also in triplicates. The peak heights were used for evaluation. Only peaks that have a signal-to-noise ratio ≥ 3 were considered in the evaluation. The height next to the respective peak defines the noise. […]

[2] = target: T1, AChE from electric eel (Electrophorus electricus); assay: HPTLC-(Ox)-AChE-I assay, spray method (AChE sprayed onto plates); type: biochemical; conditions: spray method, without oxidation; for IC10 (10% AChE inhibition), best fit / IC20 (20% AChE inhibition), best fit / IC50 (50% AChE inhibition), best fit / IC80 (80% AChE inhibition), best fit: OTPs 100 µL, oxons 10 µL applied, peak heights, n = 3
Description: as §1
as §2, with “The” for “After chromatographic development, 10 mL of freshly prepared NBS (100 µg/mL) was sprayed onto the HPTLC plates with a glass reagent sprayer, followed by a 5-min incubation at room temperature. The”
Several amounts of an OTP mix and an oxon mix were applied on HPTLC plates (Tab. S2) and tested as described in the “Combination of HPTLC and AChE-inhibition assay” section. Three plates were used for each dilution series. The application volume was 10 µL for investigating OTPs with following oxidation and 100 µL for testing OTPs without following oxidation. The application volume for the oxons was 10 µL. They were tested without oxidation step also in triplicates. The peak heights were used for evaluation. Only peaks that have a signal-to-noise ratio ≥ 3 were considered in the evaluation. The height next to the respective peak defines the noise.

T1 sequence (O42275 24-633): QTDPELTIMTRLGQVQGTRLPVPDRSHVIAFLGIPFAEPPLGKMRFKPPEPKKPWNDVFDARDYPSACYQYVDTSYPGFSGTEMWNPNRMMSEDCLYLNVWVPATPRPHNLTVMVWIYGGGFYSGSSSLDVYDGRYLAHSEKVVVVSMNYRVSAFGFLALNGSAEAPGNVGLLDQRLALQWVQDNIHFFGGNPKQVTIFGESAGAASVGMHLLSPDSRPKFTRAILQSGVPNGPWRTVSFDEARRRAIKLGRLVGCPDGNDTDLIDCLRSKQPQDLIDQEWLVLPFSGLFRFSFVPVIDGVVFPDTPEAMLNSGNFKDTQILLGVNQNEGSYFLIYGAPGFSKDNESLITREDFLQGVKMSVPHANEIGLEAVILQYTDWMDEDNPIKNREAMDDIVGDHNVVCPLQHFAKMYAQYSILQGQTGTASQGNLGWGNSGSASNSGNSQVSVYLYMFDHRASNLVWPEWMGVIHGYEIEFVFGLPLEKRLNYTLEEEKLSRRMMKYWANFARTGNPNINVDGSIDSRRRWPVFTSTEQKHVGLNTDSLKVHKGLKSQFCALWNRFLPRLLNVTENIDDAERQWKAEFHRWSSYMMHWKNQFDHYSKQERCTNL

## CCOP(=O)(OCC)Oc1nc(Cl)c(Cl)cc1Cl [Chlorpyrifos-oxon]
[1]
  LOD immersion method (first detected AChE-I peak with signal-to-noise ratio ≥ 3): 0.25 ng/spot
  IC10 (10% AChE inhibition), best fit: 0.32 ng/spot
  IC20 (20% AChE inhibition), best fit: 0.57 ng/spot
  IC50 (50% AChE inhibition), best fit: 1.5 ng/spot
  IC80 (80% AChE inhibition), best fit: 4.0 ng/spot
[2]
  LOD spray method (first detected AChE-I peak with signal-to-noise ratio ≥ 3): 0.25 ng/spot
  IC10 (10% AChE inhibition), best fit: 0.72 ng/spot
  IC20 (20% AChE inhibition), best fit: 1.1 ng/spot
  IC50 (50% AChE inhibition), best fit: 2.5 ng/spot
  IC80 (80% AChE inhibition), best fit: 5.4 ng/spot

## CCOC(=O)CC(SP(=O)(OC)OC)C(=O)OCC (centres unmarked) [Malaoxon, malaoxon]
[1]
  LOD immersion method (first detected AChE-I peak with signal-to-noise ratio ≥ 3): 0.1 ng/spot
  IC10 (10% AChE inhibition), best fit: 0.14 ng/spot
  IC20 (20% AChE inhibition), best fit: 0.24 ng/spot
  IC50 (50% AChE inhibition), best fit: 0.60 ng/spot
  IC80 (80% AChE inhibition), best fit: 1.5 ng/spot
[2]
  LOD spray method (first detected AChE-I peak with signal-to-noise ratio ≥ 3): 0.1 ng/spot
  IC10 (10% AChE inhibition), best fit: 0.16 ng/spot
  IC20 (20% AChE inhibition), best fit: 0.28 ng/spot
  IC50 (50% AChE inhibition), best fit: 0.75 ng/spot
  IC80 (80% AChE inhibition), best fit: 2.0 ng/spot
